{"source": "patent US11136351B2", "about": "(priority 2016, dated 2021)", "conditions": "pH 1.2", "note": "Residues, ends and D or L forms follow the SMILES beside them.", "data": [{"smiles": "N=C(N)NCCC[C@@H]1NC(=O)[C@@H]2CCCN2C(=O)[C@H](CC(=O)O)NC(=O)[C@H](CO)NC(=O)[C@H](CO)NC(=O)[C@@H](NC(=O)CN)CSSC[C@@H](C(N)=O)NC1=O", "note": "[[Ser^3]Vc1.1(1-8)] (HELM PEPTIDE1{G.C.S.S.D.P.R.C.[am]}$PEPTIDE1,PEPTIDE1,2:R3-8:R3$$$V2.0)", "values": [{"measurement": "stability in simulated gastric fluid", "value": "good stability"}]}]}
